Measurements reported in patent US9945863B2, “Coiled coil helix cristae morphology 1 (CHCM1) tumor marker and cancer therapeutic target” (The Research Foundation of State University of New York, priority 2012, dated 2018).

What was measured:
CHCM1/CHCHD6 mRNA [1] = assay: Lentiviral shRNA knockdown of endogenous CHCM1/CHCHD6 (Northern and Western blot); type: cell-based; conditions: RKO human colon and MCF-7 breast cancer cells; M.O.I. 1.0 (FIG. 5A)
Procedure: (§1) Northern blot analyses were done according to standard procedure (23, 24). Briefly, total RNA was extracted by Trizol reagent (Invitrogen, Carlsbad, Calif.) and ˜15 μg of total RNA were size-separated on 1.2% agarose gel and transferred to nylon membrane (Whatman, GE Health care, Piscataway, N.J.). Human CHCM1/CHCHD6 cDNA probe was labeled with ^32P and hybridization was performed in QuikHyb solution (Stratagene, La Jolla, Calif.) at 65° C.
(§2) Western blotting and immunoprecipitations were done by standard procedures as previously described (25, 26). S-tag pull down experiments were performed using human cancer cells as well as bacterial lysates. Cell pellets were prepared and lysed in lysis buffer (50 mM Tris-HCl, pH 7.4, 120 mM NaCl, 0.1% NP-40, 10 mM NaF, 5 mM EDTA, 2 mM Na3VO4, 2 mM MgCl2, 10 mM KCl, 25 mM glycerophosphate, protease inhibitor cocktail, okadic acid and 1 mM PMSF) and S-tag pull down was performed by using S-protein agarose beads (Novagen, EMD Chemicals Group, Darmstadt, Germany) according to manufacturer's protocol. For S-tag pull down using bacterial lysates, wild type and deletion variants of S-tagged CHCM1/CHCHD6 were expressed in E. coli BL21 (DE3) and induced by 1 mM IPTG (isopropyl-1-thio-β-D-galactopyranoside) at 30° C. for 6 hr. Bacteria were lysed in a buffer containing 28 mM Tris, 135 mM NaCl, 1 mM dithiothreitol (DTT), 1% Triton-X 100 (w/v), protease inhibitor cocktail and 400 μg/ml […] for 30 min at room temperature, followed by 26,000×g centrifugation for 30 min (Sorvall RC5C Plus) and S-tag pull down was done according to manufacturer's protocol. GST-tagged Mitofilin was expressed in bacteria and gel-purified as previously described (27).
Endogenous CHCM1/CHCHD6 and Mitofilin were knocked-down by lentiviral shRNA-mediated approach (28). The pLKO.1 lentiviral vectors containing the scrambled or CHCM1/CHCHD6-specific shRNAs or Mitofilin-specific shRNAs were generated by The RNA interference Consortium and purchased from Open Biosystems (Huntsville, Ala.). Lentiviruses were produced and titered according to the supplier's protocols. In all experiments, the multiplicity of infection (M.O.I.) was 1.0. Five shRNAs to target five different regions of CHCM1/CHCHD6 were used. Artificial DNA sequences coding for shRNAs are as follows. The first part of the sequence is in sense orientation then loop (underlined) followed by antisense sequence: […]

[2] = test system: CHCM1/CHCHD6 protein levels; assay: Western blot of CHCM1/CHCHD6 protein levels after drug treatment; type: cell-based, human
Procedure: as §2

CHCM1/CHCHD6 mRNA [3] = assay: Northern blot of CHCM1/CHCHD6 mRNA after genotoxic drug treatment; type: cell-based, human
Procedure: as §1

[4] = test system: MDA231 and SK-Mel-103 cells; assay: MTT assay, chemosensitivity of CHCM1/CHCHD6 knockdown cells; type: cell-based, human; conditions: Adria 3 μM for MDA231, 1 μM for SK-Mel-103, 24 hr; knockdown vs scramble (FIG. 6A)
Description: (§3) Endogenous CHCM1/CHCHD6 and Mitofilin were knocked-down by lentiviral shRNA-mediated approach (28). The pLKO.1 lentiviral vectors containing the scrambled or CHCM1/CHCHD6-specific shRNAs or Mitofilin-specific shRNAs were generated by The RNA interference Consortium and purchased from Open Biosystems (Huntsville, Ala.). Lentiviruses were produced and titered according to the supplier's protocols. In all experiments, the multiplicity of infection (M.O.I.) was 1.0. Five shRNAs to target five different regions of CHCM1/CHCHD6 were used. Artificial DNA sequences coding for shRNAs are as follows. The first part of the sequence is in sense orientation then loop (underlined) followed by antisense sequence:
(§4) MTT powder (MTT, Methylthiazolyldiphenyl-tetrazolium bromide, available from Sigma-Aldrich, St. Louis, Mo., Cat. No. M2128) was dissolved in DMEM without fetal bovine serum and phenol red to a final concentration of 1 mg/ml and then added to cells and incubated for ˜1-4 hrs depending on cell confluency. Medium was then removed and equal volume of isopropanol with 0.04N HCl was added to dissolve the precipitate. Finally, absorbance was read at 570 nm wavelength subtracting background reading at 650 nm wavelength with a Bio-Rad Smart-Spec 3100 instrument.

[5] = test system: RKO cells stably expressing exogenous CHCM1/CHCHD6; assay: MTT assay, chemosensitivity of cells stably overexpressing CHCM1/CHCHD6; type: cell-based, human; conditions: etoposide 30 μM for 48 hr; clones C3 and C4 vs vector (FIG. 6B)
Description: For stable transfections, expression vector pcDNA3.1 carrying HA/S-tagged CHCM1/CHCHD6 was used. The same vector without CHCM1/CHCHD6 insert was used for control transfection. RKO human colon cancer cells were transfected with these vectors using Lipofectamine 2000 (Invitrogen, Carlsbad, Calif.) and G418-resisitant colonies selected after approximately 2 weeks. Several independent colonies were picked up and expanded into mass culture and screened for the expression of exogenous CHCM1/CHCHD6. Several vector-only transfected colonies were also isolated, pooled and expanded into mass culture. CHCM1/CHCHD6 expressing clones B4, C3 and C4 were selected for further studies.
as §4

[6] = test system: RKO, MCF7 and MDA231 cell lines; assay: MTT assay, cell growth in CHCM1/CHCHD6 knockdown cells; type: cell-based, human; conditions: knockdown vs scramble, MCF7, MDA231 (FIG. 5B)
Description: as §3, §4

melanoma cells = assay: MTT assay, cell growth in CHCM1 knockdown melanoma cells; type: cell-based, human; conditions: knockdown vs scramble; melanoma cells (FIG. 24)
Description: as §3, §4

RKO cells [7] = assay: Transmission electron microscopy of mitochondrial cristae, RKO; type: cell-based, human; conditions: CHCM1/CHCHD6 knockdown
Description: as §3
Scramble and CHCM1/CHCHD6 knockdown cells were harvested and fixed by Ito and Karnovsky's fixative (2.5% glutaraldehyde, 2% paraformaldehyde in 0.1 M cacodylate buffer, pH 7.4) at 4° C. overnight (29). The next day cells were rinsed with 0.1 M cacodylate buffer for 5 times, 5 min each. After fixing with 1% osmium tetroxide in 0.1 M cacodylate buffer for 1 hr on ice, the samples were rinsed with double-distilled H2O for 3 times, 8 min each and later fixed with 1% Tannic acid for 1 hr. After rinsing with double-distilled H2O for additional 3 times 8 min each, samples were dehydrated and embedded into Poly/Bed® 812 according to the protocol of Poly/Bed® 812 BDMA Mini-kit (Polyscience, Inc., Warrington, Pa.). Poly/Bed®-embedded cells were cut into 80-90 nm ultrathin serial sections by a diamond knife-DIATOME 45 degree (Diatome U S, Hatfield, Pa.). Sections were supported on nickel grids/200 mesh (Electron Microscopy Sciences, Hatfield, Pa.) and post-stained in 4% uranyl acetate and 4% lead citrate. Finally sections were observed under Tecnai™ Transmission Electron Microscope (BioTwin lens) with Advantage Plus CCD Camera System at an 80.0-kV acceleration voltage.

MCF7 cells = assay: Transmission electron microscopy of mitochondrial cristae, MCF7; type: cell-based, human; conditions: CHCM1/CHCHD6 knockdown
Description: as §3
Scramble and CHCM1/CHCHD6 knockdown cells were harvested and fixed by Ito and Karnovsky's fixative (2.5% glutaraldehyde, 2% paraformaldehyde in 0.1 M cacodylate buffer, pH 7.4) at 4° C. overnight (29). The next day cells were rinsed with 0.1 M cacodylate buffer for 5 times, 5 min each. After fixing with 1% osmium tetroxide in 0.1 M cacodylate buffer for 1 hr on ice, the samples were rinsed with double-distilled H2O for 3 times, 8 min each and later fixed with 1% Tannic acid for 1 hr. […]

RKO cells [8] = assay: Mitochondrial ATP synthesis assay (luciferase-based); type: cell-based, human; conditions: RKO knockdown vs scramble cells; p<0.05 (FIG. 11A)
Procedure: Mitochondrial ATP synthesis assay was performed as reported previously (30). Briefly, CHCM1/CHCHD6 knockdown or scramble knockdown RKO cells were harvested, washed with glucose-free, serum free DMEM. Each sample with approximately 1.5×10^6 cells were re-suspended and incubated in 160 μl of buffer A (150 mM KCl, 25 mM Tris-HCl, 2 mM EDTA, 0.1% BSA, 10 mM potassium phosphate, pH 7.4, 0.1 mM MgCl2) with digitonin (40 μg/ml final concentration) for 1 min at room temperature. After a wash with buffer A, cells were centrifuged at 800×g at room temperature and pellets were re-suspended in 160 μl buffer A containing P^1, P^5-di (adenosine) pentaphosphate (0.15 mM). Subsequently, 10 μl of buffer B (0.5 M Tris-acetate, pH 7.75, 0.8 mM luciferin, 20 μg/ml luciferase), ADP (to 0.1 mM), malate and pyruvate (both to 1 mM) were added to the cell suspension. Oligomycin (1 μg/ml) was also added to one replicate of each sample prepared as above. Cells were transferred to a luminometer glass tubes and gently mixed with a vortex for 2 sec. Tubes were then placed in a luminometer (LUMAT LB 9507, Berthold Technologies, Germany) and light emission was recorded in the kinetic mode. The integration time for each reading was 1 sec. Interval between readings was 15 sec and a total recording time was 4 min. Finally, total cellular protein content of each sample was determined.

RKO cells [9] = assay: Oxygen consumption rate measurement; type: cell-based, human; conditions: RKO knockdown vs scramble cells; p<0.05 (FIG. 11B)
Procedure: Intact cell oxygen consumption rate was measured by an Oxygraph system with DW1 Oxygen Electrode (Hansatech Instruments Ltd., Norfolk, U. K.) as described previously (30). Briefly, RKO cells with CHCM1/CHCHD6 knockdown or scramble knockdown were harvested by trypsinization and centrifugation at 2500 rpm. Approximately 1.5×10^6 cells were re-suspended in 300 μl growth medium for each sample and injected into the polarographic chamber for the intact cell-coupled oxygen consumption rate.

[10] = RKO cells, respiratory chain inhibitors, 24 hr or antimycin A 1 μg/ml, rotenone 0.1 μg/ml for various time points (FIGS. 12A-B)
[11] = RKO human colon cancer cells, ADRIAMYCIN 0.5 μM (FIG. 4B)
[12] = multiple human cancer cell lines, etoposide 30 μM, ADRIAMYCIN 1.0 μM, 24 hr (FIG. 4C)
[13] = various human breast cancer cell lines (FIG. 23)

G5: lentiviral pLKO.1 CHCM1/CHCHD6-specific shRNA, SEQ ID NO: 4 (CCTGAAGAAGGGACCAATCATCTCGAGATGATTGGTCCCTTCTTCAGGT)
knockdown of endogenous CHCM1/CHCHD6 at mRNA and protein levels (CHCM1/CHCHD6 mRNA [1]): effectively knocked down

G6: lentiviral pLKO.1 CHCM1/CHCHD6-specific shRNA, SEQ ID NO: 5 (GCATGCTGCTATCCAGGATAACTCGAGTTATCCTGGATAGCAGCATGCT)
knockdown of endogenous CHCM1/CHCHD6 at mRNA and protein levels (CHCM1/CHCHD6 mRNA [1]): effectively knocked down

C=C(C)[C@H]1Cc2c(ccc3c2O[C@@H]2COc4cc(OC)c(OC)cc4[C@@H]2C3=O)O1 [rotenone]
CHCM1/CHCHD6 protein levels [2, 10]: did not appreciably affect

COc1cccc2c1C(=O)c1c(O)c3c(c(O)c1C2=O)C[C@@](O)(C(=O)CO)C[C@@H]3O[C@H]1C[C@H](N)[C@H](O)[C@H](C)O1 [ADRIAMYCIN®, doxorubicin]
time by which CHCM1/CHCHD6 mRNA expression was reduced (CHCM1/CHCHD6 mRNA [3]; [11]): ≤ 12 h | time post-treatment until which mRNA down-regulation was maintained (CHCM1/CHCHD6 mRNA [3]; [11]): 60 h | CHCM1/CHCHD6 protein levels [2, 12]: down-regulated | CHCM1 protein level [2, 13]: down-regulate | drug-mediated chemosensitivity in CHCM1/CHCHD6 knockdown cells (cell viability, MTT) [4]: further increased

N.N.[Cl][Pt][Cl] [Cisplatin]
CHCM1 protein level ([2]; UACC-62 melanoma cells, 24 hrs (FIG. 22)): downregulates

COc1cc([C@@H]2c3cc4c(cc3[C@@H](O[C@@H]3O[C@@H]5CO[C@@H](C)O[C@H]5[C@H](O)[C@H]3O)[C@H]3COC(=O)[C@H]23)OCO4)cc(OC)c1O [etoposide]
CHCM1/CHCHD6 mRNA expression (CHCM1/CHCHD6 mRNA [3]; multiple human cancer cell lines, etoposide 30 μM for 24 hr, Northern blot (FIG. 4A)): strongly down-regulated | CHCM1/CHCHD6 protein levels [2, 12]: down-regulated | CHCM1 protein level [2, 13]: down-regulate | drug-mediated chemosensitivity in CHCM1/CHCHD6 knockdown cells (cell viability, MTT) [4]: further increased | etoposide-mediated chemosensitivity in cells overexpressing CHCM1/CHCHD6 (cell viability, MTT) [5]: reduced

G8: lentiviral pLKO.1 CHCM1/CHCHD6-specific shRNA, SEQ ID NO: 7 (GCTGAGATGTATAAACTGTCTCTCGAGAGACAGTTTATACATCTCAGCT)
knockdown of endogenous CHCM1/CHCHD6 at mRNA and protein levels (CHCM1/CHCHD6 mRNA [1]): effectively knocked down | cell growth (MTT) [6]: reduces cell growth | cell growth (MTT) (melanoma cells): growth inhibition | Abnormal Mitochondria devoid or nearly devoid of cristae structures, Experiment 1 (RKO cells [7]): 55.6% | Abnormal Mitochondria devoid or nearly devoid of cristae structures, Experiment 2 (RKO cells [7]): 70.5% (74/105) | Abnormal Mitochondria devoid or nearly devoid of cristae structures, Experiment 1 (MCF7 cells): 65.2% | cellular ATP production (RKO cells [8]): affects cellular ATP production | oxygen consumption rate (RKO cells [9]): affects oxygen consumption rate

G7: lentiviral pLKO.1 CHCM1/CHCHD6-specific shRNA, SEQ ID NO: 6 (CTTTGGCCTTCAAGATGGCAACTCGAGTTGCCATCTTGAAGGCCAAAGT)
knockdown of endogenous CHCM1/CHCHD6 at mRNA and protein levels (CHCM1/CHCHD6 mRNA [1]): effectively knocked down

antimycin A
CHCM1/CHCHD6 protein levels [2, 10]: did not appreciably affect

G4: lentiviral pLKO.1 CHCM1/CHCHD6-specific shRNA, SEQ ID NO: 3 (GAGCGTATTGAGAGGAAGAATCTCGAGATTCTTCCTCTCAATACGCTCT)
knockdown of endogenous CHCM1/CHCHD6 at mRNA and protein levels (CHCM1/CHCHD6 mRNA [1]): effectively knocked down | cell growth (MTT) [6]: reduces cell growth | cell growth (MTT) (melanoma cells): growth inhibition | Abnormal Mitochondria devoid or nearly devoid of cristae structures, Experiment 1 (RKO cells [7]): 17.8% | Abnormal Mitochondria devoid or nearly devoid of cristae structures, Experiment 1 (MCF7 cells): 58.3% | cellular ATP production (RKO cells [8]): affects cellular ATP production | oxygen consumption rate (RKO cells [9]): affects oxygen consumption rate
